# Assay results published in patent US20220039395A1, “INSECT CONTROL AGENTS” (priority 2018, published 2022).
# Numbered stars: 1 amine (or outer) side, 2 acyl side, 3 side chain; on linkers, the order of the positions; unused ones are H or OH. Peptide text beside a SMILES is read from it. * marks the point of attachment. X1 = Brc1ccc2c(c1)-c1cc(N*)ccc1C2; Suc = O=C(CCC(=O)[*:2])[*:1]
# System: Aphids
# Assay: Feeding with peptides in artificial diet, mortality without other stress
# Assay type: in vivo, Myzus persicae
# Conditions: ingestion via artificial diet
# Method: A standard artificial diet for M. persicae was produced as described in Van Emden (2009) and provided the basal diet to which neuropeptide analogues were added for screening purposes. Neuropeptide analogues were diluted individually in the artificial diet to a pre-determined recommended concentration as follows: 1895 (3.5×10^−5 M) and 2019 (2.0×10^−5 M).
# Feeding apparatus were constructed using a set-up developed by Sadeghi et al (2009). For this, a piece of Parafilm was stretched over a Plexiglas ring (h=4 cm, Ø=3 cm) and 100 μl of the artificial diet containing the desired neuropeptide analogue was pipette onto the Parafilm membrane. A second piece of Parafilm, stretched to 4 times the original thickness, was stretched over the original layer, sandwiching the artificial diet between two layers of Parafilm. A strip of Parafilm was wrapped around the circumference of the Plexiglas ring, sealing in the diet. A plastic ring (h=1.2 cm, Ø=3.4 cm) was subsequently placed over the Parafilm layer, creating a walled chamber in which to house test aphids in contact with the Parafilm layer containing the artificial diet. Finally, a small Petri dish (h=1 cm, Ø=3.6 cm), modified for ventilation with net cloth, was placed on top of each feeding apparatus to prevent aphid escape.
# To obtain aphids for use in experiments, reproducing anholocyclic adults were placed on individual excised leaves of Chinese cabbage at densities of 5 adults per leaf and allowed to reproduce for 24 h. The stem of each excised leaf was held within a 0.5 mL Eppendorf tube containing water via a punctured hole in the Eppendorf lid, and placed individually within a microcage (L=4 cm, Ø=9.5 cm). Following 24 h, adults were removed and resultant first instar nymphs (<1 day old and synchronised in age to within 24 h) retained. Nymphs were allowed to develop on the Chinese cabbage for 5 days. On day 5, (3rd instar) nymphs were transferred onto the artificial diet containing a neuropeptide analogue at densities of 1 per feeding chamber and monitored daily until death. Aphids were transferred to fresh artificial diet (containing neuropeptide analogue) every 5 days. Life history traits recorded include age at first reproduction, number of nymphs produced per 24 h period, and lifespan. From these parameters, lifetime fecundity and daily fecundity were calculated. Control groups were set up involving aphids reared on the host plant, an artificial diet without a neuropeptide analogue, and an artificial diet containing the native CAPA neuropeptide.
# Aphids were reared on artificial diet, alone or supplemented with peptide 2129, 2315, 2316 or 2320. A control group (no test peptide) was reared on a host plant. No other stress conditions were applied.
# For peptides 2315, 2316 and 2320, mortality was assessed at 48, 72, 96, 120 and 144 hours. A group of 9 or 10 insects was used for each time point, and all experiments were performed at least 4 times.
compound,measurement,setting,value
"CC[C@H](C)[C@H](NC(=O)[C@H](CCCNC(=N)N)NC(=O)[C@@H]1CCCN1C(=O)[C@@H](NC(=O)[C@H](C)NC(=O)CCC(=O)Nc1ccc2c(c1)-c1cc(Br)ccc1C2)[C@@H](C)O)C(N)=O [compound 2129, 2Abf-Suc-ATPRI-NH2] ({X1-Suc}-ATPRI-NH2)",change in mortality relative to the control,after 24 h,19.7%
same,percentage survival,after 24 h,73.8%
same,effect on aphid longevity,after the first 24 h,highly significant reduction in aphid longevity
